Measurements: US9340538B2, “Dihydropyrimidine compounds and their application in pharmaceuticals” (SUNSHINE LAKE PHARMA CO., LTD., priority 2013, dated 2016)

What was measured:
[1] = Test compounds' PK assay in ICR mice; type: in vivo; settings: mouse, plasma; for AUC(0-t): AUC in 0-24 hours; for AUC(0-inf): AUC in 0 hour to infinite time
Method: The test compounds were poured into ICR mice stomach through mouth with 10 mg/kg or administered 2 mg/kg or 10 mg/kg to ICR mice by tail-intravenous injection. Blood sample of orbital vein was taken at 0.083, 0.25, 0.5, 1, 2, 4, 6, 8 and 24 hours after administration, and collected in anticoagulation tube added with EDTA-K2. The test compounds were extracted from plasma samples and chromatographed on a tandem mass spectrometer. Quantitation was performed using multiple reaction monitoring (MRM). Pharmacokinetic parameters were calculated using WinNonlin 6.1 software with non compartment model.

HBV = assay: In-vitro anti-HBV activity in stable HBV-producing cell line (HepG2.2.15), HBV DNA in culture fluid by qPCR; type: cell-based; settings: Hepatitis B virus, 168 h; 500 nmol final concentration, HepG2.2.15 cells, HBV DNA in culture media on day 7 post seeding, vs DMSO control; read-out: HBV (% Inh.) (500 nmol)
Method: In-Vitro Anti-HBV Activity of Compounds in Stable HBV-Producing Cell Line (HepG2.2.15)
HBV DNA contents in cell culture fluid were detected by the qPCR-based assay and percents of HBV inhibition by compounds (% Inh) were calculated. Specific procedures are as follows:
HepG2.2.15 cells were seeded into each well of 96-well plates, 40,000 cells per well. Cells were treated with cell culture medium containing compounds 24 hours after cell seeding. Each compound to detected percent inhibition was in duplicate and the final concentration of each compound was 500 nmol in each well. The compound-containing mediums were refreshed on day 4 post cell seeding. Culture media were collected from the HepG2.2.15 plates on day 7 post cell seeding followed by HBV DNA extraction.
HBV DNA extraction: using QIAamp 96 DNA Blood Kit (QIAGEN 51161).
PCR for quantification: PCR mix was prepared according to PCR system; PCR mix was dispensed to 384-well optical reaction plates (special for quantification); The standard diluted proportionally was added; The sample was added; The plates were sealed with optical adhesive film; PCR system was performed according to programs.
Percent of HBV inhibition of DNA replication by compound was calculated using the following equation: % Inh.=[1-HBV DNA quantity of sample/HBV DNA quantity of DMSO control]*100. II. Assay Results

For `CCOC(=O)C1=C(CN2CCOC(CCC(=O)O)C2)NC(c2nccs2)=NC1c1ccc(F)cc1Br` (centres unmarked) [Example 129, 3-(4-((6-(2-bromo-4-fluorophenyl)-5-(ethoxycarbonyl)-2-(thiazol-2-yl)-3,6-dihydropyrimidin-4-yl)methyl)morpholin-2-yl)propanoic acid], the Cmax ([1]; iv, 2 mg/kg) was 3860 ng/mL, the Tmax ([1]; iv, 2 mg/kg) was 4.8 min and the clearance ([1]; iv, 2 mg/kg) was 20.3 mL/min/kg. It also gave a half-life ([1]; iv, 2 mg/kg) of 2.42 h, an AUC(0-t) ([1]; iv, 2 mg/kg) of 1630 ng·h/mL and an AUC(0-inf) ([1]; iv, 2 mg/kg) of 1640 ng·h/mL. It also gave a Vd ([1]; iv, 2 mg/kg, read-out: Vss) of 0.9 L/kg, a Cmax ([1]; po, 10 mg/kg) of 8610 ng/mL and a Tmax ([1]; po, 10 mg/kg) of 4.8 min. For the same molecule, the half-life ([1]; po, 10 mg/kg) was 6.62 h, the AUC(0-t) ([1]; po, 10 mg/kg) was 5330 ng·h/mL and the AUC(0-inf) ([1]; po, 10 mg/kg) was 5350 ng·h/mL. It also gave a bioavailability ([1]; po, 10 mg/kg, read-out: F (absolute bioavailability)) of 65.2% and an inhibition at 0.5 µM (HBV) of 92%.
